Legend:
BJeLR = experiment: Modulatory profiling: Alamar Blue viability, lethal compound cotreated with death modulator (EC50, AUC); type: cell-based, human; design: AUC, modulator BJ.Gd3+ / AUC, modulator BJ.LNAME / AUC, modulator BJ.Lmin / AUC, modulator BJ.3MA / AUC, modulator BJ.ALLN / AUC, modulator BJ.Boc D / AUC, modulator BJ.CHX / AUC, modulator BJ.Co2+ / AUC, modulator BJ.Nec-1 / AUC, modulator BJ.Pepstatin / AUC, modulator BJ.TLCK / AUC, modulator BJ.atoc / AUC, modulator BJ.trolox / AUC, modulator BJ.zVAD: unit not given beside the values; conditions: BJeLR cells, modulatory profile value (AUC); for AUC, modulator BJ.3MA: lethal compound cotreated with modulator 3MA; for AUC, modulator BJ.ALLN: lethal compound cotreated with modulator ALLN; for AUC, modulator BJ.Boc D: lethal compound cotreated with modulator Boc D; for AUC, modulator BJ.CHX: lethal compound cotreated with modulator CHX; for AUC, modulator BJ.Co2+: lethal compound cotreated with modulator Co2+; for AUC, modulator BJ.DPQ: lethal compound cotreated with modulator DPQ; for AUC, modulator BJ.Gd3+: lethal compound cotreated with modulator Gd3+; for AUC, modulator BJ.LNAME: lethal compound cotreated with modulator LNAME; for AUC, modulator BJ.Lmin/NAD+: lethal compound cotreated with modulator Lmin/NAD+; for AUC, modulator BJ.Lmin: lethal compound cotreated with modulator Lmin; for AUC, modulator BJ.NAD+: lethal compound cotreated with modulator NAD+; for AUC, modulator BJ.NMMA: lethal compound cotreated with modulator NMMA; for AUC, modulator BJ.Nec-1: lethal compound cotreated with modulator Nec-1; for AUC, modulator BJ.Pepstatin: lethal compound cotreated with modulator Pepstatin; for AUC, modulator BJ.TLCK: lethal compound cotreated with modulator TLCK; for AUC, modulator BJ.atoc: lethal compound cotreated with modulator atoc; for AUC, modulator BJ.trolox: lethal compound cotreated with modulator trolox; for AUC, modulator BJ.zVAD: lethal compound cotreated with modulator zVAD; on AUC, modulator BJ.3MA: reference of the scale not given here; on AUC, modulator BJ.ALLN: reference of the scale not given here; on AUC, modulator BJ.Boc D: reference of the scale not given here; on AUC, modulator BJ.CHX: reference of the scale not given here; on AUC, modulator BJ.Co2+: reference of the scale not given here; on AUC, modulator BJ.DPQ: reference of the scale not given here; on AUC, modulator BJ.Gd3+: reference of the scale not given here; on AUC, modulator BJ.LNAME: reference of the scale not given here; on AUC, modulator BJ.NAD+: reference of the scale not given here; on AUC, modulator BJ.NMMA: reference of the scale not given here; on AUC, modulator BJ.Nec-1: reference of the scale not given here; on AUC, modulator BJ.Pepstatin: reference of the scale not given here; on AUC, modulator BJ.TLCK: reference of the scale not given here
HT-1080 = experiment: as above; type: cell-based; design: AUC, modulator HT.3MA / AUC, modulator HT.ALLN / AUC HT.ATA / AUC HT.ActD / AUC HT.BHA / AUC HT.BHT / AUC HT.BocD / AUC HT.CHX / AUC HT.Co2+ / AUC HT.DPQ / AUC HT.EGTA / AUC HT.Lmim / AUC HT.NAD+ / AUC HT.Nec-1 / AUC HT.SP600125 / AUC HT.TLCK / AUC HT.U0126: unit not given beside the values; conditions: for AUC HT.ATA: HT-1080, modulator ATA; for AUC HT.ActD: HT-1080, modulator ActD; for AUC HT.BHA: HT-1080, modulator BHA; for AUC HT.BHT: HT-1080, modulator BHT; for AUC HT.BocD: HT-1080, modulator BocD; for AUC HT.CHX: HT-1080, modulator CHX; for AUC HT.Co2+: HT-1080, modulator Co2+; for AUC HT.CspA: HT-1080, modulator CspA; for AUC HT.DPQ: HT-1080, modulator DPQ; for AUC HT.EGTA: HT-1080, modulator EGTA; for AUC HT.Gd3+: HT-1080, modulator Gd3+; for AUC HT.LNAME: HT-1080, modulator LNAME; for AUC HT.Lmim: HT-1080, modulator Lmim; for AUC HT.NAD+: HT-1080, modulator NAD+; for AUC HT.NMMA: HT-1080, modulator NMMA; for HT.atoc (AUC) / HT.bCarotene (AUC) / HT.deferox (AUC) / HT.digoxin (AUC) / HT.trolox (AUC) / HT.zVAD (AUC): HT-1080; for HT.atoc (AUC): modulator atoc; for HT.bCarotene (AUC): modulator bCarotene; for HT.deferox (AUC): modulator deferox; for HT.digoxin (AUC): modulator digoxin; for HT.trolox (AUC): modulator trolox; for HT.zVAD (AUC): modulator zVAD; for AUC, modulator HT.3MA / AUC, modulator HT.ALLN: HT-1080 cells, modulatory profile value (AUC); for AUC, modulator HT.3MA: lethal compound cotreated with modulator 3MA; for AUC, modulator HT.ALLN: lethal compound cotreated with modulator ALLN; on AUC HT.BHA: reference of the scale not given here; on AUC HT.EGTA: reference of the scale not given here

With `CN(C)CCCOS(=O)(=O)c1ccc(N2CCC(c3ccc(Cl)cc3)=N2)cc1` [CIL40] the “AUC, modulator BJ.3MA” value (BJeLR) was 0.1131, the “AUC, modulator BJ.ALLN” value (BJeLR) was −0.02592 and the “AUC, modulator BJ.Boc D” value (BJeLR) was −0.05607. For the same compound, the “AUC, modulator BJ.CHX” value (BJeLR) was −0.1423, the “AUC, modulator BJ.Co2+” value (BJeLR) was 0.03348 and the “AUC, modulator BJ.DPQ” value (BJeLR) was 0.01887. For the same compound, the “AUC, modulator BJ.Gd3+” value (BJeLR) was −0.004738, the “AUC, modulator BJ.LNAME” value (BJeLR) was 0.002197 and the “AUC, modulator BJ.Lmin/NAD+” value (BJeLR) was −0.06069. The “AUC, modulator BJ.Lmin” value (BJeLR) was −0.05273, the “AUC, modulator BJ.NAD+” value (BJeLR) was 0.005587 and the “AUC, modulator BJ.NMMA” value (BJeLR) was 0.05461. The “AUC, modulator BJ.Nec-1” value (BJeLR) was 0.02442, the “AUC, modulator BJ.Pepstatin” value (BJeLR) was −0.01642 and the “AUC, modulator BJ.TLCK” value (BJeLR) was −0.05358. For the same compound, the “AUC, modulator BJ.atoc” value (BJeLR) was 0.05022, the “AUC, modulator BJ.trolox” value (BJeLR) was 0.03943 and the “AUC, modulator BJ.zVAD” value (BJeLR) was 0.007977. For the same compound, the “AUC HT.ATA” value (HT-1080) was 0.06692, the “AUC HT.ActD” value (HT-1080) was −0.06544 and the “AUC HT.BHA” value (HT-1080) was −0.09372. The “AUC HT.BHT” value (HT-1080) was −0.1505, the “AUC HT.BocD” value (HT-1080) was 0.01176 and the “AUC HT.CHX” value (HT-1080) was −0.02863. The “AUC HT.Co2+” value (HT-1080) was 0.04911, the “AUC HT.CspA” value (HT-1080) was −0.04697 and the “AUC HT.DPQ” value (HT-1080) was 0.04908. The “AUC HT.EGTA” value (HT-1080) was −0.02642, the “AUC HT.Gd3+” value (HT-1080) was −0.0186 and the “AUC HT.LNAME” value (HT-1080) was −0.01999. The “AUC HT.Lmim” value (HT-1080) was 0.0004825, the “AUC HT.NAD+” value (HT-1080) was −0.04749 and the “AUC HT.NMMA” value (HT-1080) was −0.006901. The “HT.atoc (AUC)” value (HT-1080) was 0.1232, the “HT.bCarotene (AUC)” value (HT-1080) was −0.01785 and the “HT.deferox (AUC)” value (HT-1080) was −0.08111. For the same compound, the “HT.digoxin (AUC)” value (HT-1080) was −0.03539, the “HT.trolox (AUC)” value (HT-1080) was −0.02768 and the “HT.zVAD (AUC)” value (HT-1080) was 0.01717. The “AUC, modulator HT.3MA” value (HT-1080) was 0.0807 and the “AUC, modulator HT.ALLN” value (HT-1080) was 0.1761.
In the case of `CC1=CC(C)(C)Nc2ccc(OC(=O)c3cccnc3)cc21` [CIL47], the “AUC, modulator BJ.3MA” value (BJeLR) is reported as 0.1505, the “AUC, modulator BJ.ALLN” value (BJeLR) is reported as −0.02628 and the “AUC, modulator BJ.Boc D” value (BJeLR) is reported as 0.05397. For the same compound, the “AUC, modulator BJ.CHX” value (BJeLR) was −0.0269, the “AUC, modulator BJ.Co2+” value (BJeLR) was −0.1379 and the “AUC, modulator BJ.DPQ” value (BJeLR) was 0.06122. For the same compound, the “AUC, modulator BJ.Gd3+” value (BJeLR) was −0.02875, the “AUC, modulator BJ.LNAME” value (BJeLR) was −0.02479 and the “AUC, modulator BJ.Lmin/NAD+” value (BJeLR) was −0.01437. The “AUC, modulator BJ.Lmin” value (BJeLR) was −0.01696, the “AUC, modulator BJ.NAD+” value (BJeLR) was −0.06356 and the “AUC, modulator BJ.NMMA” value (BJeLR) was 0.04023. The “AUC, modulator BJ.Nec-1” value (BJeLR) was −0.02203, the “AUC, modulator BJ.Pepstatin” value (BJeLR) was 0.05454 and the “AUC, modulator BJ.TLCK” value (BJeLR) was −0.03768. For the same compound, the “AUC, modulator BJ.atoc” value (BJeLR) was 0.03519, the “AUC, modulator BJ.trolox” value (BJeLR) was −0.02806 and the “AUC, modulator BJ.zVAD” value (BJeLR) was −0.01497. For the same compound, the “AUC HT.ATA” value (HT-1080) was 0.07043, the “AUC HT.ActD” value (HT-1080) was 0.01588 and the “AUC HT.BHA” value (HT-1080) was −0.04478. For the same compound, the “AUC HT.BHT” value (HT-1080) was −0.1469, the “AUC HT.BocD” value (HT-1080) was −0.009617 and the “AUC HT.CHX” value (HT-1080) was 0.007874. The “AUC HT.Co2+” value (HT-1080) was −0.2381, the “AUC HT.CspA” value (HT-1080) was 0.01761 and the “AUC HT.DPQ” value (HT-1080) was −0.02038. For the same compound, the “AUC HT.EGTA” value (HT-1080) was 0.001051, the “AUC HT.Gd3+” value (HT-1080) was −0.02263 and the “AUC HT.LNAME” value (HT-1080) was −0.01288. For the same compound, the “AUC HT.Lmim” value (HT-1080) was −0.04173, the “AUC HT.NAD+” value (HT-1080) was −0.02784 and the “AUC HT.NMMA” value (HT-1080) was −0.01195. For the same compound, the “HT.atoc (AUC)” value (HT-1080) was 0.04666, the “HT.bCarotene (AUC)” value (HT-1080) was −0.001832 and the “HT.deferox (AUC)” value (HT-1080) was 0.01074. For the same compound, the “HT.digoxin (AUC)” value (HT-1080) was 0.03489, the “HT.trolox (AUC)” value (HT-1080) was −0.03828 and the “HT.zVAD (AUC)” value (HT-1080) was −0.005894. For the same compound, the “AUC, modulator HT.3MA” value (HT-1080) was 0.07294 and the “AUC, modulator HT.ALLN” value (HT-1080) was 0.2227.
`CCCCS(=O)(=O)/C=C\C=C/S(=O)(=O)CCCC` [CIL49] was tested, and the “AUC, modulator BJ.3MA” value (BJeLR) was 0.04504, the “AUC, modulator BJ.ALLN” value (BJeLR) was −0.05864 and the “AUC, modulator BJ.Boc D” value (BJeLR) was −0.0257. For the same compound, the “AUC, modulator BJ.CHX” value (BJeLR) was 0.1692, the “AUC, modulator BJ.Co2+” value (BJeLR) was 0.009716 and the “AUC, modulator BJ.DPQ” value (BJeLR) was −0.002084. The “AUC, modulator BJ.Gd3+” value (BJeLR) was −0.006048, the “AUC, modulator BJ.LNAME” value (BJeLR) was −0.007857 and the “AUC, modulator BJ.Lmin/NAD+” value (BJeLR) was 0.07067. The “AUC, modulator BJ.Lmin” value (BJeLR) was 0.03689, the “AUC, modulator BJ.NAD+” value (BJeLR) was 0.02344 and the “AUC, modulator BJ.NMMA” value (BJeLR) was 0.006898. For the same compound, the “AUC, modulator BJ.Nec-1” value (BJeLR) was 0.001972, the “AUC, modulator BJ.Pepstatin” value (BJeLR) was 0.02852 and the “AUC, modulator BJ.TLCK” value (BJeLR) was −0.03549. The “AUC, modulator BJ.atoc” value (BJeLR) was −0.008324, the “AUC, modulator BJ.trolox” value (BJeLR) was −0.02337 and the “AUC, modulator BJ.zVAD” value (BJeLR) was −0.001762. For the same compound, the “AUC HT.ATA” value (HT-1080) was 0.04768, the “AUC HT.ActD” value (HT-1080) was −0.01874 and the “AUC HT.BHA” value (HT-1080) was −0.01433. For the same compound, the “AUC HT.BHT” value (HT-1080) was −0.08297, the “AUC HT.BocD” value (HT-1080) was −0.0224 and the “AUC HT.CHX” value (HT-1080) was −0.009484. The “AUC HT.Co2+” value (HT-1080) was 0.008808, the “AUC HT.CspA” value (HT-1080) was 0.04471 and the “AUC HT.DPQ” value (HT-1080) was −0.02418. The “AUC HT.EGTA” value (HT-1080) was 0.02252, the “AUC HT.Gd3+” value (HT-1080) was 0.000907 and the “AUC HT.LNAME” value (HT-1080) was 0.01289. For the same compound, the “AUC HT.Lmim” value (HT-1080) was −0.03685, the “AUC HT.NAD+” value (HT-1080) was −0.01413 and the “AUC HT.NMMA” value (HT-1080) was 0.000429. The “HT.atoc (AUC)” value (HT-1080) was 0.02137, the “HT.bCarotene (AUC)” value (HT-1080) was −0.02606 and the “HT.deferox (AUC)” value (HT-1080) was 0.07453. For the same compound, the “HT.digoxin (AUC)” value (HT-1080) was 0.001647, the “HT.trolox (AUC)” value (HT-1080) was −0.01523 and the “HT.zVAD (AUC)” value (HT-1080) was 0.009879. The “AUC, modulator HT.3MA” value (HT-1080) was 0.05435 and the “AUC, modulator HT.ALLN” value (HT-1080) was 0.0662.

From patent publication US10947188B2, “Small molecule ferroptosis inducers” (THE TRUSTEES OF COLUMBIA UNIVERSITY IN THE CITY OF NEW YORK, priority 2016, dated 2021)
